According to article PMC7812606 (ACS Medicinal Chemistry Letters, 2020):
Entries after “also recorded” stand apart in the source; their conditions may differ.

Key:
[1] = tested on: APP^T668 phosphorylation in primary neurons; assay: Cell-based inhibition of APP T668 phosphorylation; conditions: concentration as low as 10 nM
[2] = biological target: panel of ∼374 wild-type kinases; assay: Kinase panel profiling, overall; type: biochemical; conditions: 17 and 25 at 5 μM, 27 at 10 μM
In vivo brain exposure = conditions: mice
JNK2 = JNK2 (Homo sapiens, UniProt P45984); type: biochemical; conditions: isoform selectivity, fold
JNK2, sequence (P45984 whole entry, canonical isoform): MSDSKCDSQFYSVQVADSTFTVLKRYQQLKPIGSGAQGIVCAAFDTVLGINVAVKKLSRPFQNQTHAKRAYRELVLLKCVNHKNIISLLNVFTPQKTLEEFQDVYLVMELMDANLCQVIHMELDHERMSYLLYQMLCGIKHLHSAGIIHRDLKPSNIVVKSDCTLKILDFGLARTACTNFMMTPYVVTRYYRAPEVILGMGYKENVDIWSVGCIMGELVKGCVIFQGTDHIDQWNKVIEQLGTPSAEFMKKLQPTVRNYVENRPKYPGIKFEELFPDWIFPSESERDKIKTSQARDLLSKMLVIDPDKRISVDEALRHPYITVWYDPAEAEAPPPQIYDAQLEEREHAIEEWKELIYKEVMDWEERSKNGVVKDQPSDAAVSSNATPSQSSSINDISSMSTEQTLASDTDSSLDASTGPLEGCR

JNK3 = JNK3 (Homo sapiens, UniProt P53779); type: biochemical; conditions: JNK3 or JNK1
JNK3, sequence (P53779 whole entry): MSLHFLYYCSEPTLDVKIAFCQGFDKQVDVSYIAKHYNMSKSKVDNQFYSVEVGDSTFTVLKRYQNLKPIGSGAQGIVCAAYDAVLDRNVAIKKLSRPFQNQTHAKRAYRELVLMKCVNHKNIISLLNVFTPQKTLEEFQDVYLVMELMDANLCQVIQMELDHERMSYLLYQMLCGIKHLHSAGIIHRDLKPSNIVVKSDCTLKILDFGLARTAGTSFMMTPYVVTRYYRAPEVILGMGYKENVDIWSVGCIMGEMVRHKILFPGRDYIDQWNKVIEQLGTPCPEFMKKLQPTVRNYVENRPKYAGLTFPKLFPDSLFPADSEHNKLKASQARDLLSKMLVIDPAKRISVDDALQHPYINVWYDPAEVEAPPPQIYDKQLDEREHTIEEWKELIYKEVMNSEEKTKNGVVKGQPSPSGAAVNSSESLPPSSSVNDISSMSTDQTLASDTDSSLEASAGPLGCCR

SMILES	inhibition of phosphorylation of residue T668 of APP [1]	kinases with significant inhibition (>80% inhibition) in panel [2]	further results
Cc1sc(C(=O)N[C@@H]2CCOC2)cc1-n1cc(NC(=O)Nc2c(F)cccc2Cl)cn1 [Compound 28]	significantly inhibited	–	–
O=C(Nc1cnn(-c2csc(C(=O)NC3COC3)c2)c1)Nc1ccccc1Cl [Compound 17]	significantly inhibited	significant inhibition to only JNK3; also recorded: against only JNK3	brain penetration (In vivo brain exposure; po dosing): brain penetrant; oral bioavailability (In vivo brain exposure; po dosing): has oral bioavailability; brain concentration (In vivo brain exposure; po, 10 mg/kg, 1 h after dosing): 1080 nM; plasma concentration (In vivo brain exposure; po, 10 mg/kg, 1 h after dosing): 960 nM
O=C(Nc1cnn(-c2csc(C(=O)NC3COC3)c2)c1)Nc1ccc(F)cc1Cl [Compound 26]	significantly inhibited	–	–
Cc1sc(C(=O)NC2COC2)cc1-n1cc(NC(=O)Nc2c(F)cccc2Cl)cn1 [Compound 27]	–	against only JNK3	–
O=C(Nc1cnn(-c2csc(C(=O)N[C@@H]3CCOC3)c2)c1)Nc1ccccc1Cl [Compound 16]	–	–	R: ratio of IC50 values for JNK2 over JNK3 (JNK2): > 250
O=C(Nc1cnn(-c2csc(C(=O)NC3COC3)c2)c1)Nc1c(F)cccc1Cl [Compound 25]	–	against only JNK3	–
O=C(Nc1cnn(-c2nc(C(=O)NC3CNC3)cs2)c1)Nc1ccccc1Cl [Compound 3]	–	–	inhibition of JNK3 and JNK1 in words (JNK3): no inhibitions
